Source: US20240400555A1 (Initial Therapeutics, Inc., priority 2023, published 2024)
Read-outs that look alike come from different tables or passages of the source.

System: MV-4-11 cells
Assay: Cell Viability Assay in MV-4-11 Cells
Assay type: cell-based
Settings: Homo sapiens, MV4-11, 72 h
Method in brief: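 Luminescent ATP read-out (CellTiter-Glo) after 72 h compound treatment of MV-4-11 leukaemia cells (7,000 per well, IMDM plus 10% FBS). Values expressed relative to DMSO control and derived by four-parameter non-linear regression.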

[1] = MV-4-11 cells, 72 h, Cell-Titer Glo, read-out: IC50

Compound	IC50 [1] [nM]	IC50 [nM]
Cc1csc(-c2ccc(C(=O)N(c3nccc4cccc(C)c34)[C@@H]3CCCNC3)c(F)c2)n1 [Example 315, (R)-2-fluoro-N-(8-methylisoquinolin-1-yl)-4-(4-methylthiazol-2-yl)-N-(piperidin-3-yl)benzamide]		240
Cn1cc(-c2ccc(C(=O)N(c3nccc4sc(-c5ccc(CO)s5)cc34)[C@@H]3CCCNC3)c(F)c2)nn1 [Example 481, (R)-2-fluoro-N-(2-(5-(hydroxymethyl)thiophen-2-yl)thieno[3,2-c]pyridin-4-yl)-4-(1-methyl-1H-1,2,3-triazol-4-yl)-N-(piperidin-3-yl)benzamide]	270	
COCCCc1nnc(-c2ccc(C(=O)N(c3nccc4scc(C)c34)[C@@H]3CCCNC3)cc2)s1 [Example 876, 4-[5-(3-methoxypropyl)-1,3,4-thiadiazol-2-yl]-N-(3-methylthieno[3,2-c]pyridin-4-yl)-N-[(3R)-3-piperidyl]benzamide]	290	
N#Cc1ccc(-c2cc3c(N(C(=O)c4ccc(-n5nnc6cccnc65)cc4F)[C@@H]4CCCNC4)nccc3s2)s1 [Example 425, N-[2-(5-cyano-2-thienyl)thieno[3,2-c]pyridin-4-yl]-2-fluoro-N-[(3R)-3-piperidyl]-4-(triazolo[4,5-b]pyridin-3-yl)benzamide]	230	
Cc1nnc(-c2ccc(C(=O)N(c3nccc4c(F)ccc(C)c34)[C@@H]3CCCNC3)c(F)c2)s1 [Example 760, (R)-2-fluoro-N-(5-fluoro-8-methylisoquinolin-1-yl)-4-(5-methyl-1,3,4-thiadiazol-2-yl)-N-(piperidin-3-yl)benzamide]	160	
O=C(c1ccc(-n2nnc3cccnc32)cc1F)N(c1nccc2sc(-c3ccc(O)cc3)cc12)[C@@H]1CCCNC1 [Example 377, (R)-4-(3H-[1,2,3]triazolo[4,5-b]pyridin-3-yl)-2-fluoro-N-(2-(4-hydroxyphenyl)thieno[3,2-c]pyridin-4-yl)-N-(piperidin-3-yl)benzamide]	1300	
O=C(c1ccc(-n2nnc3cccnc32)cc1F)N(c1nccc2sc(-c3ccc4ncnn4c3)cc12)[C@@H]1CCCNC1 [Example 434, (R)-4-(3H-[1,2,3]triazolo[4,5-b]pyridin-3-yl)-N-(2-([1,2,4]triazolo[1,5-a]pyridin-6-yl)thieno[3,2-c]pyridin-4-yl)-2-fluoro-N-(piperidin-3-yl)benzamide]	91	
COc1cc(C)c2c(N(C(=O)c3ccc(-c4nnc(C)s4)cc3F)[C@@H]3CCCNC3)nccc2c1 [Example 860, 2-fluoro-N-(6-methoxy-8-methyl-1-isoquinolyl)-4-(5-methyl-1,3,4-thiadiazol-2-yl)-N-[(3R)-3-piperidyl]benzamide]	48	
C#Cc1cc2c(N(C(=O)c3ccc(-n4nnc5cccnc54)cc3F)[C@@H]3CCCNC3)nccc2s1 [Example 382, N-(2-ethynylthieno[3,2-c]pyridin-4-yl)-2-fluoro-N-[(3R)-3-piperidyl]-4-(triazolo[4,5-b]pyridin-3-yl)benzamide]	640	
CCc1nnc(-c2ccc(C(=O)N(c3nccc4cc(C)cc(C)c34)[C@@H]3CCCNC3)nc2)s1 [Example 671, (R)—N-(6,8-dimethylisoquinolin-1-yl)-5-(5-ethyl-1,3,4-thiadiazol-2-yl)-N-(piperidin-3-yl)picolinamide]	130	
CC(C)n1cc(-c2cc3c(N(C(=O)c4ccc(-n5nnc6cccnc65)cc4F)[C@@H]4CCCNC4)nccc3s2)cn1 [Example 437, (R)-4-(3H-[1,2,3]triazolo[4,5-b]pyridin-3-yl)-2-fluoro-N-(2-(1-isopropyl-1H-pyrazol-4-yl)thieno[3,2-c]pyridin-4-yl)-N-(piperidin-3-yl)benzamide]	380	
NC(=O)c1ccc(-c2cc3c(N(C(=O)c4ccc(-c5cnn6c5CCCC6)cc4F)[C@@H]4CCCNC4)nccc3s2)cc1 [Example 825, N-[2-(4-carbamoylphenyl)thieno[3,2-c]pyridin-4-yl]-2-fluoro-N-[(3R)-3-piperidyl]-4-(4,5,6,7-tetrahydropyrazolo[1,5-a]pyridin-3-yl)benzamide]	1000	
O=C(c1ccc(-n2nnc3cccnc32)cc1F)N(c1nccc2ccc(/C=C\CO)cc12)[C@@H]1CCCNC1 [Example 337, (R,Z)-4-(3H-[1,2,3]triazolo[4,5-b]pyridin-3-yl)-2-fluoro-N-(7-(3-hydroxyprop-1-en-1-yl)isoquinolin-1-yl)-N-(piperidin-3-yl)benzamide]	250	
Cc1cccc2ccnc(N(C(=O)c3ccc(Nc4nccc(N5CCOCC5CN(C)C)n4)cc3F)[C@@H]3CCCNC3)c12 (stereo partly drawn) [Example 956, 4-(4-(3-((dimethylamino)methyl)morpholino)pyrimidin-2-ylamino)-2-fluoro-N-(8-methylisoquinolin-1-yl)-N—((R)-piperidin-3-yl)benzamide]	360	
Cn1nnc(-c2ccc(C(=O)N(c3nccc4cc(-c5cn[nH]c5)ccc34)[C@@H]3CCCNC3)cc2)n1 [Example 395, (R)—N-(6-(1H-pyrazol-4-yl)isoquinolin-1-yl)-4-(2-methyl-2H-tetrazol-5-yl)-N-(piperidin-3-yl)benzamide]		230
Nc1c(F)cc(-c2cc3c(N(C(=O)c4ccc(-n5nnc6cccnc65)cc4F)[C@@H]4CCCNC4)nccc3s2)cc1F [Example 565, N-[2-(4-amino-3,5-difluoro-phenyl)thieno[3,2-c]pyridin-4-yl]-2-fluoro-N-[(3R)-3-piperidyl]-4-(triazolo[4,5-b]pyridin-3-yl)benzamide]	230	
Cc1cccc2ccnc(N(C(=O)c3ccc(-c4cn(C)nn4)cc3F)[C@H]3CNCC[C@@H]3C)c12 [Example 441, 2-fluoro-N-(8-methyl-1-isoquinolyl)-N-[(3R, 4S)-4-methyl-3-piperidyl]-4-(1-methyltriazol-4-yl) benzamide]	120	
Cc1cc(-c2cn[nH]c2)cc2ccnc(N(C(=O)c3ccc(-n4nnc5cccnc54)cc3F)[C@@H]3CCCNC3)c12 [Example 422, (R)-4-(3H-[1,2,3]triazolo[4,5-b]pyridin-3-yl)-2-fluoro-N-(8-methyl-6-(1H-pyrazol-4-yl)isoquinolin-1-yl)-N-(piperidin-3-yl)benzamide]	6.6	
CCN1CCN(c2ccnc(Nc3ccc(C(=O)N(c4nccc5cccc(C)c45)[C@@H]4CCCNC4)c(F)c3)n2)CC1 [Example 713, (R)-4-((4-(4-ethylpiperazin-1-yl)pyrimidin-2-yl)amino)-2-fluoro-N-(8-methylisoquinolin-1-yl)-N-(piperidin-3-yl)benzamide]	82	

More lines, main results first:

IC50 [1] [nM]	Compound	IC50 [nM]
1000	O=C(c1ccc(-n2nnc3cccnc32)cc1F)N(c1nccc2sc(-c3ccnc(C(F)(F)F)c3)cc12)[C@@H]1CCCNC1 [Example 462, 2-fluoro-N-[(3R)-3-piperidyl]-4-(triazolo[4,5-b]pyridin-3-yl)-N-[2-[2-(trifluoromethyl)-4-pyridyl]thieno[3,2-c]pyridin-4-yl]benzamide]	
460	CC(C)(O)c1cccc(-c2cc3c(N(C(=O)c4ccc(-n5nnc6cccnc65)cc4F)[C@@H]4CCCNC4)nccc3s2)c1 [Example 602, (R)-4-(3H-[1,2,3]triazolo[4,5-b]pyridin-3-yl)-2-fluoro-N-(2-(3-(2-hydroxypropan-2-yl)phenyl)thieno[3,2-c]pyridin-4-yl)-N-(piperidin-3-yl)benzamide]	
650	Cn1cc(/C=C/c2ccnc(N(C(=O)c3ccc(-n4nnc5cccnc54)cc3F)[C@@H]3CCCNC3)c2)cn1 [Example 430, 2-fluoro-N-[4-[(E)-2-(1-methylpyrazol-4-yl)vinyl]-2-pyridyl]-N-[(3R)-3-piperidyl]-4-(triazolo[4,5-b]pyridin-3-yl)benzamide]	
160	Cc1csc2ccnc(N(C(=O)c3ccc(-c4nnc(CCC#N)s4)cc3F)[C@@H]3CCCNC3)c12 [Example 883, 4-[5-(2-cyanoethyl)-1,3,4-thiadiazol-2-yl]-2-fluoro-N-(3-methylthieno[3,2-c]pyridin-4-yl)-N-[(3R)-3-piperidyl]benzamide]	
600	O=C(c1ccc(-n2nnc3cccnc32)cc1F)N(c1nccc2sc(C3CC3)cc12)[C@@H]1CCCNC1 [Example 740, (R)-4-(3H-[1,2,3]triazolo[4,5-b]pyridin-3-yl)-N-(2-cyclopropylthieno[3,2-c]pyridin-4-yl)-2-fluoro-N-(piperidin-3-yl)benzamide]	
> 6200	Cc1cccc2ccnc(N(C(=O)c3ccc(Nc4nccc(O)n4)cc3F)[C@@H]3CCCNC3)c12 [Example 735, (R)-2-fluoro-4-((4-hydroxypyrimidin-2-yl)amino)-N-(8-methylisoquinolin-1-yl)-N-(piperidin-3-yl)benzamide]	
3600	Cc1cc(F)cc2ccnc(N(C(=O)c3ccc(-c4nnc(O)s4)cc3F)[C@@H]3CCCNC3)c12 [Example 650, 2-fluoro-N-(6-fluoro-8-methyl-1-isoquinolyl)-4-(5-hydroxy-1,3,4-thiadiazol-2-yl)-N-[(3R)-3-piperidyl]benzamide]	
40	Cc1cccc2ccnc(N(C(=O)c3ccc(Nc4nccc(CN5CCCCC5)n4)cc3F)[C@@H]3CCCNC3)c12 [Example 687, (R)-2-fluoro-N-(8-methylisoquinolin-1-yl)-4-((4-(piperidin-1-ylmethyl)pyrimidin-2-yl)amino)-N-(piperidin-3-yl)benzamide]	
20	Cc1cccc2ccnc(N(C(=O)c3ccc(Nc4nccc(N5CC[C@H](O)C5)n4)cc3F)[C@@H]3CCCNC3)c12 [Example 625, 2-fluoro-4-((4-((S)-3-hydroxypyrrolidin-1-yl)pyrimidin-2-yl)amino)-N-(8-methylisoquinolin-1-yl)-N—((R)-piperidin-3-yl)benzamide]	
160	Cc1nnc(-c2ccc(C(=O)N(c3nccc4scc(C)c34)[C@@H]3CCCNC3)cn2)s1 [Example 629, 6-(5-methyl-1,3,4-thiadiazol-2-yl)-N-(3-methylthieno[3,2-c]pyridin-4-yl)-N-[(3R)-3-piperidyl]pyridine-3-carboxamide]	
